# Results taken from PubChem BioAssay (NCI).
#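 These data come from cells grown in 96-well plates and exposed to compound for 48 hours at five concentrations. Abbreviation: GI50, concentration required for 50% inhibition of growth. TGI is the concentration that stops growth completely.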
# How the values were obtained:
# Assay in all cases: inhibition of tumour cell growth, NCI panel, 48 h
# BT-549 breast = tested on: BT-549 breast
# HT29 colon = tested on: HT29 colon
# SW-620 colon = tested on: SW-620 colon
# KM12 colon = tested on: KM12 colon
# M14 melanoma = tested on: M14 melanoma
# COLO 205 colon = tested on: COLO 205 colon
# MCF7 breast = tested on: MCF7 breast
# A498 renal = tested on: A498 renal
# SR leukemia = tested on: SR leukemia
# SK-OV-3 ovarian = tested on: SK-OV-3 ovarian
Structure (SMILES),GI50 (BT-549 breast),TGI (BT-549 breast),GI50 (HT29 colon),TGI (HT29 colon),GI50 (SW-620 colon),TGI (SW-620 colon),GI50 (KM12 colon),TGI (KM12 colon),GI50 (M14 melanoma),TGI (M14 melanoma),GI50 (COLO 205 colon),TGI (COLO 205 colon),GI50 (MCF7 breast),TGI (MCF7 breast),GI50 (A498 renal),TGI (A498 renal),TGI (SR leukemia),TGI (SK-OV-3 ovarian),GI50 (SK-OV-3 ovarian),GI50 (SR leukemia)
C=CC(=O)N1CCN(c2ncnc3c(F)c(-c4c(O)cccc4F)c(Cl)cc23)CC1,3.87 µM,17.3 µM,25 µM,77.7 µM,14 µM,31.9 µM,11.7 µM,28 µM,12.6 µM,28.9 µM,17.5 µM,37.5 µM,9.68 µM,29.3 µM,5.45 µM,19.1 µM,–,–,–,–
O=c1c2ccccc2c2c3c1cccc3c1cccc3c(=O)c4ccccc4c2c31,–,–,–,> 100 µM,–,> 100 µM,–,> 100 µM,–,> 100 µM,–,> 100 µM,–,–,–,> 100 µM,> 100 µM,> 100 µM,–,–
C=C(COC(C)=O)CC(/C=C(\C)CCC=C(C)C)OC(C)=O (centres undefined),–,–,–,> 100 µM,–,> 100 µM,–,> 100 µM,–,> 100 µM,–,> 100 µM,–,–,–,> 100 µM,–,> 100 µM,–,–
NS(=O)(=O)c1ccc(NC(=O)c2cccc3c(=O)c4ccccc4[nH]c23)cc1,–,–,–,> 100 µM,–,> 100 µM,–,73.6 µM,–,> 100 µM,–,> 100 µM,–,–,–,> 100 µM,> 100 µM,65.6 µM,–,–
Cc1ccc(-c2nc(C(Cl)Cl)n3nc(-c4ccccc4)cc3n2)cc1,> 100 µM,> 100 µM,1.1 µM,> 56.2 µM,0.392 µM,2.35 µM,–,–,> 100 µM,> 100 µM,–,–,–,–,–,–,–,> 100 µM,2.56 µM,–
CC(C)(C)C1(O)Cc2ccccc2C(=O)O1 (centres undefined),–,–,–,> 100 µM,–,> 100 µM,–,> 100 µM,–,> 100 µM,–,> 100 µM,–,–,–,> 100 µM,> 100 µM,> 100 µM,–,–
CCCS(=O)(=O)c1nc(NC2CC2)cc(-c2ccc3c(ccn3C3CC(C)(C)NC(C)(C)C3)c2)n1,–,–,1.81 µM,3.38 µM,–,–,1.83 µM,3.67 µM,1.74 µM,3.24 µM,1.84 µM,3.39 µM,–,–,1.81 µM,3.37 µM,0.784 µM,3.46 µM,1.86 µM,0.256 µM
N#Cc1c(N)c(C(=O)O)nn(-c2cccc(C(F)(F)F)c2)c1=O,–,–,–,> 100 µM,–,> 100 µM,–,> 100 µM,–,> 100 µM,–,> 100 µM,–,–,–,> 100 µM,> 100 µM,> 100 µM,–,–
Oc1c2c(c(O)c3ccccc13)=N[C@@H](c1ccccc1)[C@H](c1ccccc1)N=2,–,–,–,> 100 µM,–,> 100 µM,–,> 100 µM,–,> 100 µM,–,–,–,–,–,> 100 µM,> 100 µM,> 100 µM,–,–
CN(C)c1nc(-c2cccs2)n2nc(-c3ccc(Cl)cc3)cc2n1,62.8 µM,> 100 µM,–,–,> 100 µM,> 100 µM,> 100 µM,> 100 µM,–,–,–,–,> 100 µM,> 100 µM,–,–,> 100 µM,–,–,> 100 µM
CCOc1cccc2nc3cccc(C(=O)NCCN(C)C)c3nc12,–,–,–,7.14 µM,–,–,–,9.36 µM,–,6.04 µM,–,3.52 µM,–,–,–,2.26 µM,26.1 µM,> 35.4 µM,–,–
c1ccc2c(c1)N=C(c1cccc3ccccc13)CC(c1cccc3ccccc13)S2 (centres undefined),–,–,–,10.1 µM,–,6.81 µM,–,9.6 µM,–,26.2 µM,–,28.3 µM,–,–,–,20.8 µM,4.89 µM,29.8 µM,–,–
COC(=O)NC/C=C\c1nc(CC/C=C\C(=O)OC2CC3CC(=O)O[C@@H](/C=C/CC(C)C)C[C@@H]4CCC(C)C(C[C@@H](OC)CC(C2)O3)O4)co1 (some centres undefined),9.93 µM,> 100 µM,7.63 µM,> 100 µM,< 0.01 µM,> 100 µM,2.67 µM,> 100 µM,7.36 µM,> 100 µM,< 0.01 µM,98.4 µM,< 0.01 µM,> 100 µM,–,–,–,> 100 µM,> 100 µM,–
NC(N)=N/N=C/c1c(-c2ccccn2)nc2sc(Cl)cn12,8.25 µM,15.2 µM,–,–,5.29 µM,11.8 µM,8.05 µM,15.1 µM,7.6 µM,15.9 µM,6.26 µM,17 µM,13.2 µM,50 µM,–,–,3.05 µM,17.9 µM,9.1 µM,0.845 µM
CN(C)C(=S)/N=c1\ss/c(=N\S(=O)(=O)c2ccccc2)n1-c1ccccc1,–,–,–,> 100 µM,–,> 100 µM,–,> 100 µM,–,> 100 µM,–,–,–,–,–,> 100 µM,–,> 100 µM,–,–
COc1ccc(C(=O)C(C(=O)CCC(=O)Nc2cccc(C(F)(F)F)c2)c2ccccc2)cc1 (centres undefined),–,–,–,> 100 µM,–,> 100 µM,–,> 100 µM,–,> 100 µM,–,> 100 µM,–,–,–,> 100 µM,> 100 µM,> 100 µM,–,–
COc1ccc(C2=NC(C)(C)CO2)cc1,–,–,–,> 100 µM,–,> 100 µM,–,> 100 µM,–,–,–,> 100 µM,–,–,–,> 100 µM,> 100 µM,–,–,–
COc1ccc(-c2cc(-c3cc(Cl)ccc3Cl)nc3nc(=S)[nH]c(N)c23)cc1,54.9 µM,> 100 µM,37.8 µM,> 100 µM,38.7 µM,> 100 µM,26.8 µM,> 100 µM,24 µM,45 µM,85.7 µM,> 100 µM,20.1 µM,> 100 µM,–,–,–,> 100 µM,47.2 µM,–
c1cc[c]([Sn]([S]c2cccc3cccnc23)([c]2ccccc2)[c]2ccccc2)cc1,–,–,0.0223 µM,0.0908 µM,0.0225 µM,0.0918 µM,–,–,0.0222 µM,0.0624 µM,0.017 µM,0.0352 µM,–,–,0.152 µM,0.346 µM,–,0.356 µM,0.107 µM,–
C[C@H]1CCC/C=C/[C@@H]2C[C@H](N)C[C@H]2[C@H](O)/C=C/C(=O)O1,–,–,> 100 µM,> 100 µM,> 100 µM,> 100 µM,71.4 µM,> 100 µM,> 100 µM,> 100 µM,> 100 µM,> 100 µM,> 100 µM,> 100 µM,67.9 µM,> 100 µM,> 100 µM,> 100 µM,> 100 µM,74 µM
